Where two headings read alike, the source gives them in different places. Ends that are not written are not given here.
Legend:
Type in all cases: cell-based
Enterobacter aerogenes = test system: Enterobacter aerogenes
Excerpt: (§1) Bacterial isolates of Escherichia coli, Klebsiella pneumonia, Serratia marcescens, Pseudomonas aeruginosa, Enterobacter cloacae, and Enterobacter aerogenes, which were obtained from clinical cases of bovine mastitis, were used to assess the bactericidal activity of peptides in a broth microdilution assay. Isolates were obtained from repositories at Cornell University (gift of Dr. Y. H. Schukken; Quality Milk Production Services Program, Cornell University, Ithaca N.Y.) and the USDA Beltsville Agricultural Research Center. […] A. J. Bramley, Institute for Animal Health, Compton Laboratory, Newbury, England), which was originally isolated from a clinical case of mastitis ([…]. Dairy Res. 43: 205-211) was also used to assess the bactericidal activity of the peptides in biological fluids. Reference strains of E. coli (ATCC 25922) and Staphylococcus aureus (ATCC 29213) were obtained from a commercial source (American Type Culture Collection (ATCC), Manassas, Va.). To obtain fresh inoculums for evaluation, a sterile loop of each bacterial glycerol stock was streaked on a blood agar plate. After an overnight incubation at 35° C., a single uniform colony was picked and sub-passaged by streaking on a new blood agar plate and incubating the plate overnight at 35° C. To evaluate the antimicrobial activity of the peptides against various clinical mastitis bacterial isolates, the minimum inhibitory concentration (MIC) and the minimum bactericidal concentration (MBC) of these peptides against the isolates were determined using a standardized broth microdilution assay. In addition to the mastitis isolates, E. coli (ATCC 25922) and S. aureus (ATCC 29213) reference strains were evaluated. […] The assays were performed in accordance with Clinical and Laboratory Standards Institute (CLSI) [formerly National Committee for Clinical Laboratory Standards (NCCLS)] guidelines (National Committee for Clinical Laboratory Standards. 1999. Methods for Determining Bacterial Activity of Antimicrobial Agents: Approved Guideline. Wayne, Pa.; National Committee for Clinical Laboratory Standards. 2002. Performance Standards for Antimicrobial Disk and Dilution Susceptibility Tests for Bacteria Isolated from Animals: Approved Standard. 2nd Edition, Wayne, Pa.). […] The bacterial suspension was then diluted 100-fold in cation-adjusted Mueller-Hinton broth to reach a final inoculum concentration of 10^6 CFU/ml. […] A negative control column was included in the plate that included 100 μl of broth alone. The plates were incubated for 18 h at 35° C. with ambient air circulation and without shaking. The wells were subsequently inspected for cloudiness and pellet formation using a magnifying glass plate reader. The lowest concentration at which no pellet or cloudiness was apparent in a given well was identified as the MIC. […] The plates were incubated overnight at 35° C. and colonies subsequently enumerated. The MBC values were determined as the lowest concentration at which ≧99.9% of inoculated bacteria were killed. All assays were performed in triplicate and the MIC and MBC range reported.

E. coli strain P4 [1] = test: bactericidal activity in whey; conditions: for concentrations at which bactericidal activity was displayed: in the presence of whey; for Mean log10 colony forming units: whey, 6 hours at 37° C.
Method: (§2) Milk and blood samples were aseptically collected from 8 clinically healthy primiparous Holstein cows in mid-lactation with milk somatic cell counts of <150,000 cells/ml. All cows were determined to be free of intramammary pathogens by the absence of growth on blood agar plates spread with milk samples aseptically collected from each animal on 3 different days. For the preparation of whey, milk samples were centrifuged at 44,000×g at 4° C. for 30 min, and the fat layer removed with a spatula. The skim milk was transferred into another sterile tube, centrifuged for an additional 30 min, and the translucent supernatant collected. Milk and whey samples were pasteurized by heating at 63° C. for 30 min. For the preparation of serum, blood was collected from the coccygeal vein into vacutainer tubes containing gel and clot activator (BD Biosciences) for serum separation. The tubes were inverted ×5, the blood allowed to clot for 30 min, and the tubes centrifuged at 1500×g for 15 min. The clear serum supernatants were aseptically transferred into sterile tubes and heat-inactivated by incubating at 56° C. for 30 min. An aliquot of each sample was plated on blood agar plates and samples that were free of detectable bacterial growth were stored at −20° C.
(§3) Overnight bacterial cultures of E. coli strain P4 grown in trypticase soy broth were diluted 1:1,000 in brain heart infusion broth and incubated at 37° C. for 2 hours while shaking at 225 rpm. The log-phase bacteria were diluted 1:10 in brain heart infusion broth to obtain a final concentration of […]. 0.01 ml of the bacterial inoculum was added to a 1.5 ml sterile microcentrifuge tube containing 0.04 ml of serum, milk, or whey. A 0.05 ml aliquot of either peptide or CBS alone was added to each tube. The samples were then shaken at 100 rpm for 6 hours at 37° C. The sample mixtures were subsequently serially diluted in sterile phosphate-buffered saline and plated on MacConkey agar plates (BD Biosciences). The plates were incubated overnight at 37° C. and the colonies enumerated.
(§4) However, bBPI90-99,148-161 was able to inhibit >99% of the growth of E. coli in milk. Because milk appeared to have an inhibitory effect on the bactericidal activity of bBPI90-99,148-161, the peptides were subsequently evaluated for their ability to retain activity in whey, which is the casein-depleted, protein-rich liquid fraction of milk (Table 4).

E. coli strain P4 [2] = test: bactericidal activity in serum; conditions: for Mean log10 colony forming units: serum, 6 hours at 37° C.
Method: as §2, §3
(§5) To determine whether bBPI142-169 and bBPI90-99,148-161 retained their bactericidal activity in physiological fluids, the peptides were incubated with E. coli strain P4 (1×10^5 CFU) in the presence of serum (Table 2) or milk (Table 3).

E. coli strain P4 [3] = conditions: for Mean log10 colony forming units: milk, 6 hours at 37° C.
Method: as §2, §3, §5, §4

Enterobacter cloacae = test: microbe, parasite or virus in culture
Excerpt: as §1

Pseudomonas aeruginosa = test: microbe, parasite or virus in culture
Excerpt: as §1

Staphylococcus aureus = test: microbe, parasite or virus in culture
Excerpt: as §1

Serratia marcescens = test: microbe, parasite or virus in culture
Excerpt: as §1

KWKARKNFIKGSSLGWLIQLFRKR [bBPI90-99,148-161]
MBC (Enterobacter aerogenes): 64 µg/mL
MIC (Enterobacter aerogenes): 64 µg/mL
concentrations at which bactericidal activity was displayed (E. coli strain P4 [1]): ≥ 10 µg/mL
Mean log10 colony forming units (E. coli strain P4 [1]; peptide 0.1 μg/ml): 8.17 log10 colony forming units
Mean log10 colony forming units (E. coli strain P4 [1]; peptide 1 μg/ml): 7.97 log10 colony forming units
Mean log10 colony forming units (E. coli strain P4 [1]; peptide 10 μg/ml): 0 log10 colony forming units
Mean log10 colony forming units (E. coli strain P4 [1]; peptide 100 μg/ml): 0 log10 colony forming units
concentrations at which bactericidal activity was demonstrated (E. coli strain P4 [2]; in the presence of serum): ≥ 10 µg/mL
Mean log10 colony forming units (E. coli strain P4 [2]; peptide 0.1 μg/ml): 8.25 log10 colony forming units
Mean log10 colony forming units (E. coli strain P4 [2]; peptide 1 μg/ml): 8.15 log10 colony forming units
Mean log10 colony forming units (E. coli strain P4 [2]; peptide 10 μg/ml): 0 log10 colony forming units
Mean log10 colony forming units (E. coli strain P4 [2]; peptide 100 μg/ml): 0 log10 colony forming units
Mean log10 colony forming units (E. coli strain P4 [3]; peptide 20 μg/ml): 8.65 log10 colony forming units
Mean log10 colony forming units (E. coli strain P4 [3]; peptide 200 μg/ml): 7.89 log10 colony forming units
Mean log10 colony forming units (E. coli strain P4 [3]; peptide 2000 μg/ml): 6.55 log10 colony forming units
inhibition of the growth of E. coli (E. coli strain P4 [3]; strain P4, 2 mg/ml): > 99%
MIC and MBC values (Enterobacter cloacae): ≤ 64 µg/mL
MIC and MBC values (Pseudomonas aeruginosa): ≤ 128 µg/mL
MBC (Staphylococcus aureus): 64 to 128 µg/mL
MIC (Staphylococcus aureus): 64 µg/mL
MBC (Serratia marcescens): >512 µg/mL
MIC (Serratia marcescens): >512 µg/mL

VRIHISGSSLGWLIQLFRKRIESLLQKS [bBPI142-169]
MBC (Enterobacter aerogenes): >256 µg/mL
concentrations at which bactericidal activity was displayed (E. coli strain P4 [1]): neither bBPI65-99 nor bBPI142-169 demonstrated bactericidal activity at any concentration tested
Mean log10 colony forming units (E. coli strain P4 [1]; peptide 0.1 μg/ml): 8.29 log10 colony forming units
Mean log10 colony forming units (E. coli strain P4 [1]; peptide 1 μg/ml): 8.44 log10 colony forming units
Mean log10 colony forming units (E. coli strain P4 [1]; peptide 10 μg/ml): 8.10 log10 colony forming units
Mean log10 colony forming units (E. coli strain P4 [1]; peptide 100 μg/ml): 7.45 log10 colony forming units
Mean log10 colony forming units (E. coli strain P4 [2]; peptide 0.1 μg/ml): 8.42 log10 colony forming units
Mean log10 colony forming units (E. coli strain P4 [2]; peptide 1 μg/ml): 8.38 log10 colony forming units
Mean log10 colony forming units (E. coli strain P4 [2]; peptide 10 μg/ml): 8.29 log10 colony forming units
Mean log10 colony forming units (E. coli strain P4 [2]; peptide 100 μg/ml): 7.96 log10 colony forming units
Mean log10 colony forming units (E. coli strain P4 [3]; peptide 20 μg/ml): 8.67 log10 colony forming units
Mean log10 colony forming units (E. coli strain P4 [3]; peptide 200 μg/ml): 8.55 log10 colony forming units
Mean log10 colony forming units (E. coli strain P4 [3]; peptide 2000 μg/ml): 7.99 log10 colony forming units
MBC (Enterobacter cloacae): >256 µg/mL
MIC (Enterobacter cloacae): >256 µg/mL
MBC (Pseudomonas aeruginosa): >256 µg/mL
MIC (Pseudomonas aeruginosa): >256 µg/mL
MBC (Staphylococcus aureus): 128 to 256 µg/mL
MIC (Staphylococcus aureus): 128 to 256 µg/mL
MBC (Serratia marcescens): >512 µg/mL
MIC (Serratia marcescens): >512 µg/mL

NSQIRPLPDKGLDLSIRDASIKIRGKWKARKNFIK [bBPI65-99]
MBC (Enterobacter aerogenes): >256 µg/mL
MIC (Enterobacter aerogenes): >256 µg/mL
concentrations at which bactericidal activity was displayed (E. coli strain P4 [1]): neither bBPI65-99 nor bBPI142-169 demonstrated bactericidal activity at any concentration tested
Mean log10 colony forming units (E. coli strain P4 [1]; peptide 0.1 μg/ml): 8.47 log10 colony forming units
Mean log10 colony forming units (E. coli strain P4 [1]; peptide 1 μg/ml): 8.26 log10 colony forming units
Mean log10 colony forming units (E. coli strain P4 [1]; peptide 10 μg/ml): 8.16 log10 colony forming units
Mean log10 colony forming units (E. coli strain P4 [1]; peptide 100 μg/ml): 7.36 log10 colony forming units
Mean log10 colony forming units (E. coli strain P4 [2]; peptide 0.1 μg/ml): 8.27 log10 colony forming units
Mean log10 colony forming units (E. coli strain P4 [2]; peptide 1 μg/ml): 8.28 log10 colony forming units
Mean log10 colony forming units (E. coli strain P4 [2]; peptide 10 μg/ml): 8.23 log10 colony forming units
Mean log10 colony forming units (E. coli strain P4 [2]; peptide 100 μg/ml): 8.07 log10 colony forming units
Mean log10 colony forming units (E. coli strain P4 [3]; peptide 20 μg/ml): 8.69 log10 colony forming units
Mean log10 colony forming units (E. coli strain P4 [3]; peptide 200 μg/ml): 8.54 log10 colony forming units
Mean log10 colony forming units (E. coli strain P4 [3]; peptide 2000 μg/ml): 8.06 log10 colony forming units
MBC (Enterobacter cloacae): >256 µg/mL
MIC (Enterobacter cloacae): >256 µg/mL
MBC (Pseudomonas aeruginosa): >256 µg/mL
MIC (Pseudomonas aeruginosa): >256 µg/mL
MBC (Staphylococcus aureus): >256 µg/mL
MIC (Staphylococcus aureus): >256 µg/mL
MBC (Serratia marcescens): >512 µg/mL
MIC (Serratia marcescens): >512 µg/mL

Reference: US20090048160A1, “Antimicrobial activity of bovine bactericidal/permeability-increasing protein (BPI)-derived peptides against Gram-negative bacterial mastitis isolates” (priority 2007, published 2009)
